Experimental data published in patent US12281225B2, “Process for preparing stable polymers containing vinylimidazole” (BASF SE, priority 2018, dated 2025).

Key:
[1] = system: Yeast: Candida albicans, Candida valida, Rhodotorula rura, Saccharomyces cerevisiae; test: Preservation test with periodic inoculation, yeast assessment; type: cell-based; settings: for Start sample measurement, yeast assess., 4th inoculation: freshly formulated; for 60 d 40° C., yeast assess., 4th inoculation: sample stored 60 d at 40° C.
In short: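 Semiquantitative growth scores (−− no growth to ++ strong growth) from weekly agar streaks incubated 3 days at 25 °C. Preserved polymer samples got four weekly 0.5 ml inoculations (titer 10^9 organisms/ml), the first two days after preservative addition; testing began fresh and after 60-day storage at 40 °C.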

[2] = Iodine color number according to DIN 6162:2014-09; type: physicochemical
[3] = system: Bacteria: Escherichia coli, Staphylococcus aureus, Pseudomonas aeruginosa, Pseudomonas putida, Burkholderia cepacia, Alcaligenes faecalis; test: Preservation test with periodic inoculation, bacteria assessment; type: cell-based; settings: sample stored 60 d at 40° C.
Procedure: Microbiological results at the start (freshly formulated, i.e. 4-week test series is started immediately) and after 60 days of storage at 40° C. (i.e. the 4-week microbial testing is started with the sample stored at 40° C. for 60 days)
The test described below is carried out in order to ascertain the preserving effect of chemical preservatives in aqueous products and systems, the principle of the described method reflecting the efficacy of chemical preservatives with respect to pot-maintenance of aqueous products/systems under conditions corresponding to the use of laundry products/consumer products by the consumer. For this purpose, the preservatives to be tested are added in those concentrations which correspond to from the literature or to the manufacturer data from the suppliers (e.g. Thor, Speyer). In said test, our orientation was toward the upper range, which, with the exception of VI-containing polymers, had always led to excellent results in the case of aqueous polymers for laundry.
A constant microorganism load is achieved by periodic inoculation of the test batches. Before the swabs of each batch made respectively immediately in parallel with the inoculation. The assessment is made on the basis of the microbial growth of the streaks.
When carrying out said tests, 25 g of the polymer to be tested are weighed in each case into a vessel with a screw cap. The preservatives to be tested are each added in separate batches according to the specified use concentrations. An unpreserved product sample was used in each case for the growth control. Two days after the addition of the preservative, the samples are infected with 0.5 ml of inoculum (2% w/w). The titer of this inoculant solution is 10^9 organisms per ml. The following microorganisms are the test organisms for the preservation test:
• Escherichia coli • Staphylococcus aureus • Pseudomonas aeruginosa • Pseudomonas putida • Burkholderia cepacia • Alcaligenes faecalis Yeast: • Candida albicans • Candida valida • Rhodotorula rura • Saccharomyces cerevisiae
The test batches are inoculated four times altogether and once a week and are streaked on an agar plate once a week; the first streaking is done immediately before the new inoculation. Microbial growth on the agar surface is assessed after a three-day incubation at 25° C. As a precaution, negative swabs are additionally observed for a further three days and reassessed. The preserving effect is effected in a semiquantitative method via the growth of the individual streaks in accordance with the assessment from − via + to +++. The preservative result is repeatedly demonstrably robust, i.e. +++− defines the microbial growth.
When assessing the results, it is assumed that a preservative can be regarded as good if there are batches under the above-described laboratory conditions for a period of four weeks without microbial invasion of the sample, and that, even after the fourth inoculation, no microbial attacks occur growth can be identified. • −−: no growth • −: slight growth, max. 100 colonies • 0: moderate growth, max. 400 colonies • +: uniform growth with individual colonies still easily identifiable • ++: strong growth; too many colonies to be counted, already some extensive growth

[4] = Analysis of active substance: preservative concentration before and after storage in VI-containing polymer solution; type: physicochemical; settings: for active-substance concentration, 0 d, RT: before storage; for active-substance concentration, 14 d, 40° C.: storage 14 d at 40° C.; for active-substance concentration, 28 d, 40° C.: storage 28 d at 40° C.; for active-substance concentration, 60 d 40° C.: storage 60 d at 40° C.
In short: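 Preservatives (MIT, BIT, CMIT, OIT, DCOIT, iodopropynyl butyl carbamate) in aqueous vinylpyrrolidone–vinylimidazole copolymer solution quantified after dilution by isocratic RP18 chromatography with UV detection, using an acid-methanol eluent.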

[5] = Polymer P5 (HP56) with stabilizer

Cn1sc(Cl)cc1=O [CMIT, 5-chloro-N-methylisothiazolin-3-one]
Start sample measurement, yeast assess., 4th inoculation ([1]; Polymer P1): − (slight growth, max. 100 colonies)
60 d 40° C., yeast assess., 4th inoculation ([1]; Polymer P1): +
Start sample measurement, yeast assess., 4th inoculation ([1]; Polymer P2): − (slight growth, max. 100 colonies)
60 d 40° C., yeast assess., 4th inoculation ([1]; Polymer P2): +
Start sample measurement, yeast assess., 4th inoculation ([1]; Polymer P3): − (slight growth, max. 100 colonies)
60 d 40° C., yeast assess., 4th inoculation ([1]; Polymer P3): ++
Start sample measurement, yeast assess., 4th inoculation ([1]; Polymer P4): − (slight growth, max. 100 colonies)
60 d 40° C., yeast assess., 4th inoculation ([1]; Polymer P4): +
Start sample measurement, yeast assess., 4th inoculation ([1]; Polymer P5 (HP56)): − (slight growth, max. 100 colonies)
60 d 40° C., yeast assess., 4th inoculation ([1]; Polymer P5 (HP56)): ++
Start sample measurement, yeast assess., 4th inoculation ([1]; Polymer P6): − (slight growth, max. 100 colonies)
60 d 40° C., yeast assess., 4th inoculation ([1]; Polymer P6): +
Start sample measurement, yeast assess., 4th inoculation ([1]; Polymer P7): − (slight growth, max. 100 colonies)
60 d 40° C., yeast assess., 4th inoculation ([1]; Polymer P7): ++
Start sample measurement, yeast assess., 4th inoculation ([1]; Polymer P8): − (slight growth, max. 100 colonies)
60 d 40° C., yeast assess., 4th inoculation ([1]; Polymer P8): 0 (moderate growth, max. 400 colonies)
Start sample measurement, yeast assess., 4th inoculation ([1]; Polymer P9): − (slight growth, max. 100 colonies)
60 d 40° C., yeast assess., 4th inoculation ([1]; Polymer P9): ++
Iodine color number, 60 d 40° C. ([2]; Polymer P1 with stabilizer): 6.2
Iodine color number, start ([2]; Polymer P1 with stabilizer): 2.5
Iodine color number, 60 d 40° C. ([2]; Polymer P2 with stabilizer): 8.6
Iodine color number, start ([2]; Polymer P2 with stabilizer): 3.1
Iodine color number, 60 d 40° C. ([2]; Polymer P3 with stabilizer): 8.5
Iodine color number, start ([2]; Polymer P3 with stabilizer): 3.2
Iodine color number, 60 d 40° C. ([2]; Polymer P4 with stabilizer): 8.9
Iodine color number, start ([2]; Polymer P4 with stabilizer): 3.2
Iodine color number, 60 d 40° C. [2, 5]: 9.0
Iodine color number, start [2, 5]: 3.5
Iodine color number, 60 d 40° C. ([2]; Polymer P6 with stabilizer): 9.1
Iodine color number, start ([2]; Polymer P6 with stabilizer): 3.5
Iodine color number, 60 d 40° C. ([2]; Polymer P7 with stabilizer): 9.1
Iodine color number, start ([2]; Polymer P7 with stabilizer): 3.5
Iodine color number, 60 d 40° C. ([2]; Polymer P8 with stabilizer): 9.3
Iodine color number, start ([2]; Polymer P8 with stabilizer): 3.3
Iodine color number, 60 d 40° C. ([2]; Polymer P9 with stabilizer): 13.9
Iodine color number, start ([2]; Polymer P9 with stabilizer): 3.9
60 d 40° C., bact. assess., 4th inoculation ([3]; Polymer P1): 0 (moderate growth, max. 400 colonies)
60 d 40° C., bact. assess., 4th inoculation ([3]; Polymer P2): +
60 d 40° C., bact. assess., 4th inoculation ([3]; Polymer P3): +
60 d 40° C., bact. assess., 4th inoculation ([3]; Polymer P4): +
60 d 40° C., bact. assess., 4th inoculation ([3]; Polymer P5 (HP56)): +
60 d 40° C., bact. assess., 4th inoculation ([3]; Polymer P6): +
60 d 40° C., bact. assess., 4th inoculation ([3]; Polymer P7): +
60 d 40° C., bact. assess., 4th inoculation ([3]; Polymer P8): 0 (moderate growth, max. 400 colonies)
60 d 40° C., bact. assess., 4th inoculation ([3]; Polymer P9): ++
active-substance concentration, 0 d, RT ([4]; in Polymer P1): 150 ppm
active-substance concentration, 14 d, 40° C. ([4]; in Polymer P1): 94 ppm
active-substance concentration, 28 d, 40° C. ([4]; in Polymer P1): 81 ppm
active-substance concentration, 60 d 40° C. ([4]; in Polymer P1): 59 ppm
active-substance concentration, 0 d, RT ([4]; in Polymer P2): 150 ppm
active-substance concentration, 14 d, 40° C. ([4]; in Polymer P2): 108 ppm
active-substance concentration, 28 d, 40° C. ([4]; in Polymer P2): 89 ppm
active-substance concentration, 60 d 40° C. ([4]; in Polymer P2): 66 ppm
active-substance concentration, 0 d, RT ([4]; in Polymer P3): 150 ppm
active-substance concentration, 14 d, 40° C. ([4]; in Polymer P3): 117 ppm
active-substance concentration, 28 d, 40° C. ([4]; in Polymer P3): 93 ppm
active-substance concentration, 60 d 40° C. ([4]; in Polymer P3): 77 ppm
active-substance concentration, 0 d, RT ([4]; in Polymer P4): 150 ppm
active-substance concentration, 14 d, 40° C. ([4]; in Polymer P4): 111 ppm
active-substance concentration, 28 d, 40° C. ([4]; in Polymer P4): 89 ppm
active-substance concentration, 60 d 40° C. ([4]; in Polymer P4): 73 ppm
active-substance concentration, 0 d, RT ([4]; in Polymer P5 (HP56)): 150 ppm
active-substance concentration, 14 d, 40° C. ([4]; in Polymer P5 (HP56)): 94 ppm
active-substance concentration, 28 d, 40° C. ([4]; in Polymer P5 (HP56)): 81 ppm
active-substance concentration, 60 d 40° C. ([4]; in Polymer P5 (HP56)): 59 ppm
active-substance concentration, 0 d, RT ([4]; in Polymer P6): 150 ppm
active-substance concentration, 14 d, 40° C. ([4]; in Polymer P6): 91 ppm
active-substance concentration, 28 d, 40° C. ([4]; in Polymer P6): 76 ppm
active-substance concentration, 60 d 40° C. ([4]; in Polymer P6): 55 ppm
active-substance concentration, 0 d, RT ([4]; in Polymer P7): 150 ppm
active-substance concentration, 14 d, 40° C. ([4]; in Polymer P7): 96 ppm
active-substance concentration, 28 d, 40° C. ([4]; in Polymer P7): 80 ppm
active-substance concentration, 60 d 40° C. ([4]; in Polymer P7): 64 ppm
active-substance concentration, 0 d, RT ([4]; in Polymer P8): 150 ppm
active-substance concentration, 14 d, 40° C. ([4]; in Polymer P8): 94 ppm
active-substance concentration, 28 d, 40° C. ([4]; in Polymer P8): 81 ppm
active-substance concentration, 60 d 40° C. ([4]; in Polymer P8): 59 ppm
active-substance concentration, 0 d, RT ([4]; in Polymer P9): 150 ppm
active-substance concentration, 14 d, 40° C. ([4]; in Polymer P9): 82 ppm
active-substance concentration, 28 d, 40° C. ([4]; in Polymer P9): 70 ppm
active-substance concentration, 60 d 40° C. ([4]; in Polymer P9): 51 ppm
